Laboratory results reported in PubChem BioAssay AID652041 (Broad Institute, 2013).
“And” between values parts separate entries of the source, which are not always exact repeats. Identical values can stand only once.

The molecules below were run on P. falciparum HB3 in RBCs, SYBR Green DNA fluorescence (assay: antimalarial activity against intraerythrocytic HB3 parasites – HB3 strain, red blood cells, SYBR Green, cherry-picked, dose response (AID 652041);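 also: parasites exposed to compound for 72 hours before the DNA read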).

Row | SMILES | AC35
1 | CC(=O)C1=C(c2ccc(Br)cc2)C(=O)c2ccccc2C1=O | 0.472 µM
2 | O=c1c(CO)cc(CO)cc(CO)c1O | 20.8 µM
3 | S=C(NCc1ccco1)Nc1ccc(Oc2ccc(Cl)cc2)cc1 | 16.8 µM
4 | CCCCNc1c(-c2ccc(-c3ccc(OC)cc3)c(OC)c2)nc2ccccn12 | 4.29 µM
5 | COc1cccc(/C=N/NC(=O)c2nc(-c3ccccc3)cc(-c3ccccc3)n2)c1O | 7.16 µM
6 | O=c1c2ccccc2c(-c2ccc(O)cc2)nn1-c1cccc(C(F)(F)F)c1 | 3.52 µM
7 | c1ccc(CSc2ccc(-c3ccccn3)nn2)nc1 | 23 µM
8 | Cc1ccc(C(=O)C(SC(C)(C)C)n2cncn2)cc1 (configuration not stated) | 38.7 µM
9 | COc1cnc(-c2ccccn2)nc1Sc1ccccc1 | 9.03 µM
10 | COc1ccc(N(C)S(=O)(=O)c2ccc(Cl)c(C(=O)NNC(=O)c3ccccc3O)c2)cc1 | 35.8 µM
11 | CNc1cc(CSC)nc(SCc2ccc(Cl)cc2Cl)n1 | 22.3 µM
12 | CC(C)(C)C(=O)C(Oc1ccc(Cl)cc1)n1cncn1 (configuration not stated) | 36.1 µM
13 | O=C(NCCC1=CCCCC1)c1c(O)nc2sccn2c1=O | 16.2 µM
14 | Clc1ccccc1C(c1ccccc1)(c1ccccc1)n1ccnc1 | 0.645 µM
15 | O=C(NCC1CC1(Cl)Cl)Nc1ccc(Cl)c(Cl)c1 (configuration not stated) | 5.48 µM
16 | Cc1c(C(=O)O)cccc1-c1ccc(/C=N/Nc2ccc(Br)cc2)o1 | 21.3 µM
17 | CCCCCCC(Cl)(Cn1ccnc1)c1ccccc1 (configuration not stated) | 3.48 µM
18 | c1ccc(C(=NNc2nc3ccccc3s2)c2ccccn2)cc1 | 2.22 µM
19 | CCCn1nc(C(=O)N2CCN(S(=O)(=O)c3ccc(C)c(C)c3)CC2)c2ccccc2c1=O | 8.13 µM
20 | Oc1ccc(/C=N/Nc2ccc(C(F)(F)F)cn2)c(O)c1 | 6.46 µM
21 | Cn1ccc(=Nc2ccc(NC(=O)c3ccc(N=c4ccn(C)c5ccc([N+](=O)[O-])cc45)cc3)cc2)cc1 | < 0.0235 µM
22 | CCCCc1ccc(-n2c(Cc3cccs3)n[nH]c2=S)cc1 | 29.2 µM
23 | CC(=O)NC(c1ccc(C)cc1)c1cc([N+](=O)[O-])c2cccnc2c1O (configuration not stated) | 11.2 µM
24 | Cc1csc(NC(=O)C(C)Oc2ccc(Cl)cc2C)n1 (configuration not stated) | 23 µM

Row | SMILES | AC35
25 | Oc1cccc2ccc(Nc3ccccn3)nc12 | 0.321 µM
26 | O=C(Nc1ccc(Br)c(C(F)(F)F)c1)c1ccccc1 | 10.7 µM
27 | CCc1ccc(S(=O)(=O)N(C(=O)c2ccncc2)c2ccc(OC(=O)c3ccncc3)cc2)cc1 | 41.7 µM
28 | CC(NC(=S)NC1CCC(C(C)(C)C)CC1)c1ccccc1 (configuration not stated) | 8.88 µM
29 | CC1(C(=O)OCC(=O)Nc2ccc3ccccc3c2)CC1(Cl)Cl (configuration not stated) | 31.2 µM
30 | Clc1ccc(COC(Cn2ccnc2)c2ccc(Cl)cc2Cl)c(Cl)c1 (configuration not stated) | 1.57 µM and 1.95 µM
31 | COc1ccc2oc(=O)c(-c3csc(Nc4cccc(O)c4)n3)cc2c1 | 12 µM
32 | CCn1c(CNc2ccc(Cl)cc2)nnc1SCc1ccc(Cl)cc1 | 38.6 µM
33 | O=C(CCCSc1ccccc1)Nc1nc(-c2ccccn2)cs1 | 8.91 µM
34 | O=c1c2ccccc2nc(-c2ccc(-c3ccccc3)cc2)n1-c1ccncc1 | 18.3 µM
35 | Cn1nc(C(F)(F)F)c(C#N)c1N1CCN(c2ccc(F)cc2)CC1 | 18.7 µM
36 | CC(C)=CCc1c(O)ccc(C(=O)Cc2ccccc2)c1O | 11 µM
37 | CCc1cc(SC#N)cc(C)c1NC(=O)CCl | 7.66 µM
38 | C=C1C(=O)C23CCC4C(C)(C(=O)OC)CCCC4(C)C2CCC1(O)C3 (configuration not stated) | 1.72 µM
39 | Cc1ccc(NS(=O)(=O)c2ccc(N3CCN(c4ccc(O)cc4)CC3)c([N+](=O)[O-])c2)c(C)c1 | 10.4 µM
40 | CCc1ccc(CN(C)C(=O)c2cc(COc3cccc(C(F)(F)F)c3)on2)nc1 | 29.1 µM
41 | CCOC(=O)c1cc2c(=Cc3ccc(N(C)C)cc3)c3ccccc3n2[n+]1C | 2.44 µM
42 | O=C1OCC(CO)(CO)N=C1NNc1ccc(Cl)c(Cl)c1 | 19.7 µM
43 | COc1ccccc1-c1sc2cc3c(cc2c1C#Cc1cncn1C)OCO3 | 2.96 µM
44 | CC1CCc2c(C(=O)Nc3ccccn3)csc2C1 (configuration not stated) | 35.6 µM
45 | Cc1cccc2sc(NNC(=O)c3ccc(S(=O)(=O)N4CCCC(C)C4)cc3)nc12 (configuration not stated) | 4.44 µM
46 | O=S(=O)(Nc1ccccc1)c1ccc(Oc2ncc(C(F)(F)F)cc2Cl)cc1 | 25.1 µM
47 | CCCC(C)Sc1nc2c([nH]1)c(=S)n(C)c(=O)n2C (configuration not stated) | 6.67 µM
